Test system: 379773-124-R-J2-PDC complex spheroids, viability % test/control
Test: Anticancer human tumor 379773-124-R-J2-PDC patient-derived endometrial carcinoma cell line growth inhibition [CLK]
Conditions: for IC50: curve of first compound; for viability, T/C: stronger effect = lower value; active = viability on the fitted dose curve at most 10% of control; inactive = the rest
Procedure, shortened: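 Patient-derived tumor cells grown as complex spheroids with HUVEC endothelial cells and mesenchymal stem cells, treated with drug combinations. Concentrations descend in half-log steps from near clinical Cmax, or from 10 microM if Cmax unknown.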

[1] = second compound 0.0316 µM, first compound 0.0316 µM
[2] = second compound 0.0316 µM, first compound 0.1 µM
[3] = second compound 0.0316 µM, first compound 0.316 µM
[4] = second compound 0.0316 µM, first compound 1 µM
[5] = second compound 0.0316 µM, first compound 3.16 µM
[6] = second compound 0.0316 µM, first compound 10 µM
[7] = second compound 0.1 µM, first compound 0.0316 µM
[8] = second compound 0.1 µM, first compound 0.1 µM
[9] = second compound 0.1 µM, first compound 0.316 µM
[10] = second compound 0.1 µM, first compound 1 µM
[11] = second compound 0.1 µM, first compound 3.16 µM
[12] = second compound 0.1 µM, first compound 10 µM
[13] = second compound 0.316 µM, first compound 0.0316 µM
[14] = second compound 0.316 µM, first compound 0.1 µM
[15] = second compound 0.316 µM, first compound 0.316 µM
[16] = second compound 0.316 µM, first compound 1 µM
[17] = second compound 0.316 µM, first compound 3.16 µM
[18] = second compound 0.316 µM, first compound 10 µM
[19] = second compound 1 µM, first compound 0.0316 µM
[20] = second compound 1 µM, first compound 0.1 µM
[21] = second compound 1 µM, first compound 0.316 µM
[22] = second compound 1 µM, first compound 1 µM
[23] = second compound 1 µM, first compound 3.16 µM
[24] = second compound 1 µM, first compound 10 µM
[25] = second compound 3.16 µM, first compound 0.0316 µM
[26] = second compound 3.16 µM, first compound 0.1 µM
[27] = second compound 3.16 µM, first compound 0.316 µM
[28] = second compound 3.16 µM, first compound 1 µM
[29] = second compound 3.16 µM, first compound 3.16 µM
[30] = second compound 3.16 µM, first compound 10 µM
[31] = second compound 10 µM, first compound 0.0316 µM
[32] = second compound 10 µM, first compound 0.1 µM
[33] = second compound 10 µM, first compound 0.316 µM
[34] = second compound 10 µM, first compound 1 µM
[35] = second compound 10 µM, first compound 3.16 µM
[36] = second compound 10 µM, first compound 10 µM
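Also: compound exposure lasted seven days before the viability readout.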
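For viability, T/C in this document: 100% = DMSO vehicle control wells.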

Nc1ccn(C2OC(CO)C(O)C2(F)F)c(=O)n1 (centres undefined) + CNC(=O)c1ccc(Nc2nc(OC3CCCC3)c3c(-c4ccc5nc(C)oc5c4)c[nH]c3n2)c(OC)c1
inactive: viability, T/C [19] 12.8% | viability, T/C [25] 13.6% | viability, T/C [31] 13.8%
active: viability, T/C [1] 6.55% | viability, T/C [2] 3.76% | viability, T/C [3] 4.74% | viability, T/C [4] 5.45% | viability, T/C [5] 5.63% | viability, T/C [6] 3.43% | viability, T/C [7] 7.18% | viability, T/C [8] 4.04% | viability, T/C [9] 4.89% | viability, T/C [10] 3% | viability, T/C [11] 4.22% | viability, T/C [12] 2.03% | viability, T/C [13] 6.96% | viability, T/C [14] 5.27% | viability, T/C [15] 3.29% | viability, T/C [16] 3.59% | viability, T/C [17] 3.28% | viability, T/C [18] 2.14% | viability, T/C [20] 6.01% | viability, T/C [21] 3.29% | viability, T/C [22] 2.77% | viability, T/C [23] 3.38% | viability, T/C [24] 1.2% | viability, T/C [26] 6.51% | viability, T/C [27] 2.77% | viability, T/C [28] 2.75% | viability, T/C [29] 2.62% | viability, T/C [30] 0.99% | viability, T/C [32] 8.14% | viability, T/C [33] 4.09% | viability, T/C [34] 2.72% | viability, T/C [35] 3.57% | viability, T/C [36] 1.76%
< 31.6 nM: IC50 (second compound 0.0316 µM) | IC50 (second compound 0.1 µM) | IC50 (second compound 0.316 µM) | IC50 (second compound 1 µM) | IC50 (second compound 3.16 µM) | IC50 (second compound 10 µM)

O=c1[nH]cc(F)c(=O)[nH]1 + CNC(=O)c1ccc(Nc2nc(OC3CCCC3)c3c(-c4ccc5nc(C)oc5c4)c[nH]c3n2)c(OC)c1
active: viability, T/C [30] 9.65% | viability, T/C [36] 9.98%
> 10000 nM: IC50 (second compound 0.0316 µM)
< 31.6 nM: IC50 (second compound 0.1 µM) | IC50 (second compound 0.316 µM) | IC50 (second compound 1 µM) | IC50 (second compound 3.16 µM) | IC50 (second compound 10 µM)
inactive: viability, T/C [1] 86.5% | viability, T/C [2] 76.3% | viability, T/C [3] 80.7% | viability, T/C [4] 70.5% | viability, T/C [5] 70.8% | viability, T/C [6] 54.5% | viability, T/C [7] 50.4% | viability, T/C [8] 35.9% | viability, T/C [9] 31.5% | viability, T/C [10] 33.3% | viability, T/C [11] 29.7% | viability, T/C [12] 28.2% | viability, T/C [13] 41% | viability, T/C [14] 35.2% | viability, T/C [15] 34.5% | viability, T/C [16] 33.7% | viability, T/C [17] 24% | viability, T/C [18] 18.1% | viability, T/C [19] 36.9% | viability, T/C [20] 29.2% | viability, T/C [21] 30.5% | viability, T/C [22] 27.2% | viability, T/C [23] 20.2% | viability, T/C [24] 10.7% | viability, T/C [25] 36.1% | viability, T/C [26] 37.1% | viability, T/C [27] 34.8% | viability, T/C [28] 19.3% | viability, T/C [29] 15.3% | viability, T/C [31] 42.5% | viability, T/C [32] 31.3% | viability, T/C [33] 28.6% | viability, T/C [34] 23.5% | viability, T/C [35] 14.4%
